From PMC10408569, “Recruitment of hexahydroquinoline as anticancer scaffold targeting inhibition of wild and mutants EGFR (EGFR^WT, EGFR^T790M, and EGFR^L858R)” (Journal of Enzyme Inhibition and Medicinal Chemistry, 2023)

Columns and labels:
[1] = tested on: HOP-62; experiment: NCI-60 anticancer screening (SRB); format: cell-based; conditions: Homo sapiens; HOP-62, NSC lung cancer; one dose 10 μM; read-out: Growth Inhibition Percentage (GI %)
[2] = tested on: OVCAR-3; experiment: NCI-60 anticancer screening (SRB); format: cell-based; conditions: Homo sapiens; OVCAR-3, ovarian cancer; one dose 10 μM; read-out: Growth Inhibition Percentage (GI %)
[3] = tested on: A549/ATCC; experiment: NCI-60 anticancer screening (SRB); format: cell-based; conditions: Homo sapiens; A549/ATCC, NSC lung cancer; one dose 10 μM; read-out: Growth Inhibition Percentage (GI %)
[4] = tested on: SF-295; experiment: NCI-60 anticancer screening (SRB); format: cell-based; conditions: Homo sapiens; SF-295, CNS cancer; one dose 10 μM; read-out: Growth Inhibition Percentage (GI %)
[5] = tested on: HS 578T; experiment: NCI-60 anticancer screening (SRB); format: cell-based; conditions: Homo sapiens; HS 578T, breast cancer; one dose 10 μM; read-out: Growth Inhibition Percentage (GI %)
[6] = tested on: MDA-MB-435; experiment: NCI-60 anticancer screening (SRB); format: cell-based; conditions: Homo sapiens; MDA-MB-435, melanoma; one dose 10 μM; read-out: Growth Inhibition Percentage (GI %)
[7] = tested on: ACHN; experiment: NCI-60 anticancer screening (SRB); format: cell-based; conditions: Homo sapiens, renal cancer, one dose 10 μM, read-out: Growth Inhibition Percentage (GI %)
[8] = tested on: OVCAR-4; experiment: NCI-60 anticancer screening (SRB); format: cell-based; conditions: Homo sapiens; OVCAR-4, ovarian cancer; one dose 10 μM; read-out: Growth Inhibition Percentage (GI %)
[9] = tested on: MOLT-4; experiment: NCI-60 anticancer screening (SRB); format: cell-based; conditions: Homo sapiens; MOLT-4, leukemia; one dose 10 μM; read-out: Growth Inhibition Percentage (GI %)
[10] = tested on: UACC-62; experiment: NCI-60 anticancer screening (SRB); format: cell-based; conditions: Homo sapiens; UACC-62, melanoma; one dose 10 μM; read-out: Growth Inhibition Percentage (GI %)
[11] = tested on: CAKI-1; experiment: NCI-60 anticancer screening (SRB); format: cell-based; conditions: Homo sapiens; CAKI-1, renal cancer; one dose 10 μM; read-out: Growth Inhibition Percentage (GI %)
[12] = tested on: NCI-H460; experiment: NCI-60 anticancer screening (SRB); format: cell-based; conditions: Homo sapiens; NCI-H460, NSC lung cancer; one dose 10 μM; read-out: Growth Inhibition Percentage (GI %)
[13] = tested on: NCI-H522; experiment: NCI-60 anticancer screening (SRB); format: cell-based; conditions: Homo sapiens; NCI-H522, NSC lung cancer; one dose 10 μM; read-out: Growth Inhibition Percentage (GI %)
[14] = tested on: HT29; experiment: NCI-60 anticancer screening (SRB); format: cell-based; conditions: Homo sapiens, HT-29; HT29, colon cancer; one dose 10 μM; read-out: Growth Inhibition Percentage (GI %)
[15] = tested on: HOP-92; experiment: NCI-60 anticancer screening (SRB); format: cell-based; conditions: Homo sapiens; HOP-92, NSC lung cancer; one dose 10 μM; read-out: Growth Inhibition Percentage (GI %)
[16] = tested on: RPMI-8226; experiment: NCI-60 anticancer screening (SRB); format: cell-based; conditions: Homo sapiens; RPMI-8226, leukemia; one dose 10 μM; read-out: Growth Inhibition Percentage (GI %)
[17] = tested on: UO-31; experiment: NCI-60 anticancer screening (SRB); format: cell-based; conditions: Homo sapiens; UO-31, renal cancer; one dose 10 μM; read-out: Growth Inhibition Percentage (GI %)
[18] = tested on: SNB-19; experiment: NCI-60 anticancer screening (SRB); format: cell-based; conditions: Homo sapiens; SNB-19, CNS cancer; one dose 10 μM; read-out: Growth Inhibition Percentage (GI %)
[19] = tested on: SF-539; experiment: NCI-60 anticancer screening (SRB); format: cell-based; conditions: Homo sapiens; SF-539, CNS cancer; one dose 10 μM; read-out: Growth Inhibition Percentage (GI %)
[20] = tested on: SK-MEL-28; experiment: NCI-60 anticancer screening (SRB); format: cell-based; conditions: Homo sapiens; SK-MEL-28, melanoma; one dose 10 μM; read-out: Growth Inhibition Percentage (GI %)
[21] = tested on: SK-MEL-5; experiment: NCI-60 anticancer screening (SRB); format: cell-based; conditions: Homo sapiens; SK-MEL-5, melanoma; one dose 10 μM; read-out: Growth Inhibition Percentage (GI %)
[22] = tested on: OVCAR-8; experiment: NCI-60 anticancer screening (SRB); format: cell-based; conditions: Homo sapiens; OVCAR-8, ovarian cancer; one dose 10 μM; read-out: Growth Inhibition Percentage (GI %)
[23] = tested on: DU-145; experiment: NCI-60 anticancer screening (SRB); format: cell-based; conditions: Homo sapiens; DU-145, prostate cancer; one dose 10 μM; read-out: Growth Inhibition Percentage (GI %)
[24] = tested on: HCC-2998; experiment: NCI-60 anticancer screening (SRB); format: cell-based; conditions: Homo sapiens; HCC-2998, colon cancer; one dose 10 μM; read-out: Growth Inhibition Percentage (GI %)
[25] = tested on: EKVX; experiment: NCI-60 anticancer screening (SRB); format: cell-based; conditions: Homo sapiens, NSC lung cancer, one dose 10 μM, read-out: Growth Inhibition Percentage (GI %)
[26] = tested on: MALME-3M; experiment: NCI-60 anticancer screening (SRB); format: cell-based; conditions: Homo sapiens, melanoma, one dose 10 μM, read-out: Growth Inhibition Percentage (GI %)
[27] = tested on: SN 12C; experiment: NCI-60 anticancer screening (SRB); format: cell-based; conditions: Homo sapiens, SN12C; SN 12C, renal cancer; one dose 10 μM; read-out: Growth Inhibition Percentage (GI %)

SMILES	inhibition at 10 µM [1] [%]	inhibition at 10 µM [2] [%]	inhibition at 10 µM [3] [%]	inhibition at 10 µM [4] [%]	inhibition at 10 µM [5] [%]	inhibition at 10 µM [6] [%]	inhibition at 10 µM [7] [%]	inhibition at 10 µM [8] [%]	inhibition at 10 µM [9] [%]	inhibition at 10 µM [10] [%]	inhibition at 10 µM [11] [%]	inhibition at 10 µM [12] [%]	inhibition at 10 µM [13] [%]	melting point [°C]	inhibition at 10 µM [14] [%]	inhibition at 10 µM [15] [%]	inhibition at 10 µM [16] [%]	inhibition at 10 µM [17] [%]	inhibition at 10 µM [18] [%]	inhibition at 10 µM [20] [%]	also measured
CCOC(=O)C1=C(N)N(c2ccc(C)cc2)C2=C(C(=O)CC(C)(C)C2)C1c1ccccc1Cl (racemic) [6b, (±)-Ethyl 2-amino-4–(2-chlorophenyl)-7,7-dimethyl-1–(4-methylphenyl)-5-oxo-1,4,5,6,7,8-hexahydroquinoline-3-carboxylate]	< 10	17	13	< 10	< 10	< 10	< 10	< 10	< 10	23	31	20	17	240 to 242	30	< 10	22	19	12	< 10	inhibition at 10 µM [19]: < 10%; inhibition at 10 µM [21]: 17%; inhibition at 10 µM [22]: 20%; inhibition at 10 µM [23]: < 10%; inhibition at 10 µM [24]: < 10%; inhibition at 10 µM [25]: 15%; inhibition at 10 µM [26]: < 10%; inhibition at 10 µM [27]: < 10%
CCOC(=O)C1=C(N)N(c2ccccc2)C2=C(C(=O)CC(C)(C)C2)C1c1ccccc1OC (racemic) [6g, (±)-Ethyl 2-amino-4–(2-methoxyphenyl)-7,7-dimethyl-5-oxo-1-phenyl-1,4,5,6,7,8-hexahydroquinoline-3-carboxylate]	< 10	< 10	< 10	11	< 10	< 10	< 10	< 10	< 10	< 10	< 10	< 10	< 10	243 to 245	< 10	< 10	< 10	26	< 10	< 10	inhibition at 10 µM [19]: < 10%; inhibition at 10 µM [21]: < 10%; inhibition at 10 µM [22]: < 10%; inhibition at 10 µM [23]: < 10%; inhibition at 10 µM [24]: < 10%; inhibition at 10 µM [25]: < 10%; inhibition at 10 µM [26]: < 10%; inhibition at 10 µM [27]: < 10%
CCOC(=O)C1=C(N)N(c2ccc(C)cc2)C2=C(C(=O)CC(C)(C)C2)C1c1ccccc1OC (racemic) [6h, (±)-Ethyl 2-amino-4–(2-methoxyphenyl)-7,7-dimethyl-1–(4-methylphenyl)-5-oxo-1,4,5,6,7,8-hexahydroquinoline-3-carboxylate]	< 10	< 10	< 10	< 10	< 10	< 10	< 10	< 10	< 10	< 10	< 10	< 10	< 10	181 to 183	< 10	< 10	< 10	21	< 10	< 10	inhibition at 10 µM [19]: < 10%; inhibition at 10 µM [21]: < 10%; inhibition at 10 µM [22]: < 10%; inhibition at 10 µM [23]: < 10%; inhibition at 10 µM [24]: < 10%; inhibition at 10 µM [25]: < 10%; inhibition at 10 µM [26]: < 10%; inhibition at 10 µM [27]: < 10%
CCOC(=O)C1=C(N)N(c2ccc(C)cc2)C2=C(C(=O)CC(C)(C)C2)C1c1ccc([N+](=O)[O-])cc1 (racemic) [8j, (±)-Ethyl 2-amino-7,7-dimethyl-1–(4-methylphenyl)-4–(4-nitrophenyl)-5-oxo-1,4,5,6,7,8-hexahydroquinoline-3-carboxylate]	< 10	< 10	< 10	< 10	< 10	< 10	< 10	< 10	< 10	13	< 10	< 10	< 10	270 to 272	< 10	< 10	< 10	< 10	< 10	< 10	inhibition at 10 µM [21]: < 10%; inhibition at 10 µM [22]: < 10%; inhibition at 10 µM [23]: < 10%; inhibition at 10 µM [24]: < 10%; inhibition at 10 µM [25]: < 10%; inhibition at 10 µM [26]: < 10%; inhibition at 10 µM [27]: < 10%
